Assay results published in ChEMBL document CHEMBL1144356 (J Med Chem, 2005).

Columns and labels:
Canis familiaris [1] = test: Effect on cholesterol lowering in male Beagle dog at an oral dose of 0.1 mkd for 15 days
Canis familiaris [2] = test: Effect on cholesterol lowering in male Beagle dog at an oral dose of 0.3 mkd for 7 days with 4 mkd simavastatin
Canis familiaris [3] = test: Effect on cholesterol lowering in male Beagle dog at an oral dose of 0.01 mkd for 7 days
Cricetinae gen. sp. [4] = test: Effect at an oral dose of 0.1 mg/kg/day for 14 days on serum cholesterol level of hamster; type: functional, Cricetulus griseus
[5] = target: T1, Peroxisome proliferator-activated receptor delta (Homo sapiens, UniProt Q03181); test: In vitro binding affinity for PPAR-delta
T1 sequence (Q03181 whole entry): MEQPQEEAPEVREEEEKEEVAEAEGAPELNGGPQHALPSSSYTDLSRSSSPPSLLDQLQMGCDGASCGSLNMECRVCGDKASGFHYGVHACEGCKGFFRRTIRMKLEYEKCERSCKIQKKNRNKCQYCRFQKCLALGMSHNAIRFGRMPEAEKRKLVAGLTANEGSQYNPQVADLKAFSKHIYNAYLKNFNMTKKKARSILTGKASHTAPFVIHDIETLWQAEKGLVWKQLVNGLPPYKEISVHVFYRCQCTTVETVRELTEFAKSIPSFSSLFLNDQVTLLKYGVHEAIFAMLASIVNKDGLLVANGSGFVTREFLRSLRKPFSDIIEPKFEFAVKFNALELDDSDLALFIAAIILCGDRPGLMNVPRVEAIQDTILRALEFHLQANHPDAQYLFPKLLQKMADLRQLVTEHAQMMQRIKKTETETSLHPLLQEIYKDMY

Canis familiaris [6] = test: Effect on cholesterol lowering in male Beagle dog at an oral dose of 0.01 mkd for 10 days
Cricetinae gen. sp. [7] = test: Effect at an oral dose of 1 mg/kg/day for 14 days on serum cholesterol level of hamster; type: functional, Cricetulus griseus

CC[C@@]1(C(=O)O)Cc2cc(OCCCOc3ccc(OC(F)(F)F)cc3Cl)ccc2O1
TC (Canis familiaris [1]): -22.1% | TC (Canis familiaris [2]): -27.8% | TC (Canis familiaris [3]): -7.2% | TC (Cricetinae gen. sp. [4]): -15% | IC50 [5]: > 15 µM | TC (Canis familiaris [6]): -11.7% | TC (Cricetinae gen. sp. [7]): -42%
